Measured values taken from patent publication US6878736B1, “Histamine H3 receptor ligands” (James Black Foundation Limited, priority 1998, dated 2005).
Counter-ions that a name gives are not always drawn.

Tests used:
Histamine H3 receptor [1] = biological target: T1, Histamine H3 receptor (Cavia porcellus, UniProt Q9JI35); assay: Histamine H3 functional assay, guinea pig ileum (ileal longitudinal muscle, myenteric plexus); design: species or system tissue; conditions: antagonist affinity from rightward shift of R-(α)-methylhistamine E/[A] curves (Schild); typical variance ±0.15 log units; read-out: pKb (Guinea pig ileum) (converted)
T1 sequence (Q9JI35 whole entry): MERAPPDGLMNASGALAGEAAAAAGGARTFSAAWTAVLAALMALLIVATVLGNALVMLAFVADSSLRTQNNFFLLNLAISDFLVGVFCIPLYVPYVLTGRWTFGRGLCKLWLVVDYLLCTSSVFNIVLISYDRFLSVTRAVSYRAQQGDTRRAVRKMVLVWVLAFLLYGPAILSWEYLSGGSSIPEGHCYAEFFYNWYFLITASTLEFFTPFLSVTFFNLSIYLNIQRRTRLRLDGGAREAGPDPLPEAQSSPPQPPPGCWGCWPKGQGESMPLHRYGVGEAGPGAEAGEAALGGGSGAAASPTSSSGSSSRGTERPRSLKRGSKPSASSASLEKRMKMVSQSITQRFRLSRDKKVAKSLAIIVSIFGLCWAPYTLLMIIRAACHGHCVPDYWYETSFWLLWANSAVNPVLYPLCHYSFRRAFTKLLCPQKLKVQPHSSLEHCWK
Method: • 1. J. Med. Chem 1994, 314. • 2. WO 97/29092 Histamine H3 Functional Assay—Guinea Pig Ileum
The biological activity of the compounds of the examples was measured using the ileal longitudinal muscle, myenteric plexus assay described by Paton and Aboo Zar (J. Physiol. 1968, 194, 13-33). Male Dunkin-Hartley guinea pigs (250-300 g) were employed. Briefly, a 50 cm portion of ileum proximal to the caecum was removed, after discarding the terminal 20 cm. Ileal segments (3 cm) were cleaned by passing Krebs-Henseleit buffer containing 3 μM mepyramine gently through the ileum using a Pasteur pipette (size: 13.8 cm length, 0.65 cm diameter). To avoid unnecessary damage to the tissue, Krebs-Henseleit buffer was passed through the ileal segment, while it was lying horizontally on a petri dish. Therefore, the ileum was not over-distended and the buffer flowed through with ease. Each segment was then passed over a Pasteur pipette and the longitudinal muscle layer and adhering myenteric plexus was teased away using moist cotton wool, by stroking tangentially away from the mesenteric attachment. The tissues were suspended in 20 ml organ baths containing Krebs-Henseleit buffer at 37±1° C. and gassed with […]. The tissues were ligated to two parallel stainless steel wires, situated between two platinum electrodes (0.76 cm length, 0.06 cm diameter). All measurements were recorded isometrically (Grass FTO3 transducer). Following an initial loading tension of 1 g, the tissues were stimulated with electrical pulses at a frequency of 0.1 Hz and a pulse duration of 0.5 msec, as described by Kosterlitz & Watt (Br. J. Pharmacol. 1968, 266276). Initially, the tissues were stimulated at supramaximal (1.3 fold times maximal) voltage for a period of 30 min and then the tissues were washed and re-stimulated. A “sighter dose” of the selective histamine H3-receptor agonist, R-(α)-methylhistamine (0.3 μM) (Arrang et al. Nature, 1987, 117-123), was administered. Upon generation of response, the “sighter dose” was removed from the tissues by “washout” (6 washes over 60 min) and during this period the electrical stimulation was switched off. The tissues were then re-stimulated and allowed to stabilise prior to the addition of drug treatments, which were allocated on a randomised block basis to the organ baths. Following the incubation period, a single cumulative E/[A] curve was obtained. The experimental E/[A] curve data was expressed as the percentage inhibition of the peak height of electrically-stimulated contraction. Antagonist affinity values were calculated from the degree of rightward shift of the R-(α)-methylhistamine E/[A] curves using Schild's methods (Arunlakshana & Schild Br. J. Pharmacol. 1959, 48-58). Typical variance in this assay is ±0.15 log units.

Histamine H3 receptor [2] = biological target: T1, Histamine H3 receptor; assay: Histamine H3 radioligand binding assay, guinea pig cortex ([3H]-R-α-methylhistamine); conditions: guinea pig cortex membranes, competition with 1 nM [3H]-R-α-methylhistamine; for Ki: read-out: pKi (Guinea pig cortex) (converted)
Method: The compounds of the invention were also tested in a guinea pig cortex binding assay, as follows:
Histamine H3 Radioligand Binding Assay—Guinea Pig Cortex
Male Dunkin Hartley guinea pigs (200-300 g) were used. The whole brain was removed and immediately placed in ice-cold 20 mM Hepes-NaOH buffer (pH7.4 at 21±3° C.). The cortex was dissected, weighed and homogenised in ice-cold 20 mM Hepes-NaOH buffer (pH7.4 at 21±3° C.) (50 ml/guinea-pig cortex) using a polytron (Kinematica AG; PT-DA 3020/2TS, 3×3 s). The homogenate was centrifuged at 100×g for 5 min and the supernatants pooled and stored at 4° C. The pellets were rehomogenised in fresh ice-cold buffer (80 ml) and recentrifuged (100×g for 5 min). The supernatants were pooled and pellets rehomogenised and recentrifuged (100×g for 5 min). All supernatants were pooled and centrifuged at 39,800×g for 12 min at 4° C. The final pellet was resuspended in 20 mM Hepes-NaOH buffer (pH7.4 at 21±3° C.) to a tissue concentration of 7.5 mg.ml^−1, using a teflon-in-glass homogeniser.
Guinea pig cortex membranes (400 μl) were incubated for 165 min at 21±3° C. in a final volume of 500 μl with 20 mM Hepes-NaOH buffer containing [^3H]-R-α-methylhistamine (50 μl; 1 nM) and competing compound. Total and non-specific binding of [^3H]-R-α-methylhistamine were defined using 50 μl of buffer and 50 μl of 10 μM thioperamide, respectively. The assay was terminated by rapid filtration through Whatman GF/B filters, presoaked (2 hr) in 0.1% polyethyleneimine, using a Brandell Cell Harvester. The filters were washed (3×3 ml) with ice-cold 50 mM Tris-HCl (pH6.9 at 21±3° C.), transferred into scintillation vials, 5 ml liquid scintillation cocktail was added and after 4 hours the bound radioactivity was determined by counting (4 min) in a Beckman liquid scintillation counter.
Data are analysed using GraphPad prism and the general equation for a competition curve with variable Hill slope (nH). [formula] where • X is the log concentration of competing compound, • Y is the binding obtained at each concentration of X, • pIC50 is the concentration of the competitor required to compete for half of the specific binding.
The IC50 is converted to the K1 using the Cheng Prusoff equation, K1=IC50/(1+(L/KD)) where • IC50 is the concentration of competitor required to compete for half the specific binding, • L is the radioligand concentration used, • KD is the equilibrium dissociation constant for the radioligand determined by saturation experiments.

Ki (Histamine H3 receptor [2]) [nM]	Compound	also measured
–	N=C(NCCCN1CCCC1)NCc1ccc(C(F)(F)F)cc1 [Example 5, N-(4-(Trifluoromethyl)benzyl)-N′-(3-pyrrolidin-1-yl-propyl)-guanidine bis-hydrochloride]	Kb (Histamine H3 receptor [1]): 794 nM
794	N=C(NCCCN1CCOCC1)NCc1ccc(Cl)cc1 [Example 15, N-(4-Chlorobenzyl)-N′-(3-morpholin-4-yl-propyl)-guanidine bis-hydrochloride]	–
316	N=C(NCCc1ccc(Cl)cc1)NCCN1CCCC1 [Example 23, N-(2-(4-Chlorophenyl)ethyl)-N′-(2-pyrrolidin-1-yl-ethyl)-guanidine bis-hydrochloride]	–
158	CN1CCCC1CCNC(=N)NCc1ccc(Cl)cc1 (stereo not shown) [Example 27, N-(4-Chlorobenzyl)-N′-(2-(1-methyl-pyrrolidin-2-yl)-ethyl)-guanidine bis-hydrochloride]	–
–	Cl.Cl.N=C(NCCCN1CCCC1)NCC1CCCCC1 [Example 39, N-Cyclohexyl-methyl-N′-(3-pyrrolidin-1-yl-propyl)-guanidine bis-hydrochloride]	pKi (Guinea pig cortex) (Histamine H3 receptor [2]): 7.4
20	N=C(NCCCCCN1CCCC1)NCc1ccc(C2CCCCC2)cc1 [Example 57, N-(4-Cyclohexylbenzyl)-N′-(5-pyrrolidin-1-yl-pentyl)-guanidine bis-hydrochloride]	–
158	CN1CCN(CCCCNS(=O)(=O)c2ccc3ccccc3c2)CC1 [Example 85, N-(4-(4-Methyl-piperazin-1-yl)-butyl)-2-naphthalenesulfonamide]	–
2510	CN(CCN1CCCC1)S(=O)(=O)c1ccc2ccccc2c1 [Example 86, N-(2-Pyrrolidin-1-yl-ethyl)-N-methyl-2-naphthalenesulfonamide]	–
1260	[O-][S+](NCCCN1CCCC1)c1ccc2ccccc2c1 (stereo not shown) [Example 87, N-(3-Pyrrolidin-1-yl-propyl)-2-naphthalenesulfinamide]	–
1260	CN1CCCCC1CCNS(=O)(=O)c1ccc2ccccc2c1 (stereo not shown) [Example 90, N-(2-(1-Methyl-piperidin-2-yl)-ethyl)-2-naphthalenesulfonamide]	–
2000	CN1CCCC(CCCNS(=O)(=O)c2ccc3ccccc3c2)C1 (stereo not shown) [Example 92, N-(3-(1-Methyl-piperidin-3-yl)-propyl)-2-naphthalenesulfonamide]	–
3160	CN1CCC(CCCNS(=O)(=O)c2ccc3ccccc3c2)CC1 [Example 93, N-(3-(1-Methyl-piperidin-4-yl)-propyl)-2-naphthalenesulfonamide]	–
2510	CN1CCCC1CCNS(=O)(=O)c1cccc2ccccc12 (stereo not shown) [Example 94, N-(2-(1-Methyl-pyrrolidin-2-yl)-ethyl)-1-naphthalenesulfonamide]	–
1580	Cc1ccc(S(=O)(=O)NCCC2CCCN2C)cc1 (stereo not shown) [Example 95, N-(2-(1-Methyl-pyrrolidin-2-yl)ethyl)4-toluenesulfonamide]	–
1580	CN1CCCC1CCNS(=O)(=O)c1ccc(Cl)cc1 (stereo not shown) [Example 96, N-(2-(1-Methyl-pyrrolidin-2-yl)-ethyl)-4-chlorophenylsulfonamide]	–
1580	CN1CCC[C@H]1CCNS(=O)(=O)Cc1ccc(Cl)cc1 [Example 97, N-(2-(1-Methyl-pyrrolidin-2S-yl)-ethyl)-(4-chlorophenyl)-methanesulfonamide]	–

Ki (Histamine H3 receptor [2]) [nM]	Compound	also measured
1580	CN1CCC[C@H]1CCCNS(=O)(=O)NCc1ccccc1 [Example 108, N-Benzyl-N′-(3-(1-methyl-pyrrolidin-2S-yl)-propyl)-sulfamide]	–
200	CN1CCC[C@@H]1CCCNS(=O)(=O)NCc1ccc(Cl)cc1 [Example 109, N-(4-Chlorobenzyl)-N′-(3-(1-methyl-pyrrolidin-2R-yl)-propyl)-sulfamide]	–
1580	CN1CCC[C@H]1CCCNS(=O)(=O)NCCc1ccc(Cl)cc1 [Example 111, N-(2-(4-Chlorophenyl)-ethyl)-N′-(3-(1-methyl-pyrrolidin-2S-yl)-propyl)-sulfamide]	–
79.4	CN1CCCC1CCCCCNS(=O)(=O)NCc1ccc(Cl)cc1 (stereo not drawn) [Example 117, N-(4-Chlorobenzyl)-N′-(5-(1-methyl-pyrrolidin-2S-yl)-pentyl)-sulfamide]	–
1580	O=S(=O)(NCCC[C@@H]1CCCN1CCCc1ccc(Cl)cc1)NCc1ccc(Cl)cc1 [Example 118]	–
251	COC(=O)CN(CCC[C@@H]1CCCN1C)S(=O)(=O)NCc1ccc(Cl)cc1 [Example 123, N-(4-Chlorobenyl)-N′-(methoxycarbonylmethyl)-N′-(3-(1-methyl-pyrrolidin-2S-yl)propyl)-sulfamide]	–
1260	CN1CCC[C@H]1CCCN(CCO)S(=O)(=O)NCc1ccc(Cl)cc1 [Example 124, N-(4-Chlorobenzyl)-N′-(2-hydroxyethyl)-N′-(3-(1-methyl-pyrrolidin-2S-yl)propyl)-sulfamide]	–
1000	CN1CCC[C@H]1CCCN(CCCN)S(=O)(=O)NCc1ccc(Cl)cc1 [Example 126, N-(4-Chlorobenzyl)-N′-(3-amino-propyl)-N′-(3-(1-methyl-pyrrolidin-2S-yl)propyl)-sulfamide]	–
3160	CN(C)C(=O)CN(CCC[C@@H]1CCCN1C)S(=O)(=O)NCc1ccc(Cl)cc1 [Example 128, N-(4-Chlorobenzyl)-N′-(dimethylamidomethyl)-N′-(3-(1-methyl-pyrrolidin-2S-yl)propyl)-sulfamide]	–
794	CN1CCC[C@H]1CCCN(CC(=O)NCc1ccc(Cl)cc1)S(=O)(=O)NCc1ccc(Cl)cc1 [Example 129, N-(4-Chlorobenzyl)-N′-(4-chlorobenzylamidomethyl)-N′-(3-(1-methyl-pyrrolidin-2S-yl)propyl)-sulfamide]	–
5010	CN1CCC[C@H]1CCCN(CC(=O)OCc1ccccc1)S(=O)(=O)NCc1ccc(Cl)cc1 [Example 130, N-(4-Chlorobenzyl)-N′-(benyloxycarbonylmethyl)-N′-(3-(1-methyl-pyrrolidin-2S-yl)propyl)-sulfamide]	–
1000	O=S(=O)(NCCN1CCCC1)NCc1ccc(Cl)cc1 [Example 134, N-(4-Chlorobenzyl)-N′-(2-pyrrolidin-1-yl-ethyl)-sulfamide]	–
2510	CN1CCCC1CCCCS(=O)(=O)NCC1CCCCC1 (stereo not drawn) [Example 137, N-Cyclohexyl-methyl-4-(1-methyl-pyrrolidin-2S-yl)-butanesulfonamide]	–
1260	CN1CCCC1CCCCS(=O)(=O)NCC12CC3CC(CC(C3)C1)C2 (stereo not drawn) [Example 138, N-Adamantan-1-yl-methyl-4-(1-methyl-pyrrolidin-2S-yl)-butanesulfonamide]	–
794	CC(C)CN1CCC[C@H]1CCCNS(=O)(=O)Cc1ccc(Cl)cc1 [Example 143]	–
